In patent US6710051B1, “Screening method” (Klaus Trier APS, priority 1997, dated 2004):
Where two headings read alike, the source gives them in different places. Marks after values point to notes of the source that are not given here.

Assays:
sclera [1] = experiment: Content of collagen specific amino acids in rabbit sclera after long term treatment (HPLC); type: in vivo; set-up: Hydroxylysine Decr. compared to the control / Hydroxyproline Inc. compared to the control / Proline Inc. compared to the control: concentration or dose not given beside the values; details: for Hydroxylysine content / Hydroxyproline content / Proline content: dried defatted weight
Source text: (§1) Test animal: Charles River Deutschland Chinchilla Bastard female rabbits.
(§2) Number of animals: 6 test animals and 6 control animals
(§3) Age: approximately 8 weeks at the commencement of the test.
(§4) Weight: 1.4-1.9 kg at the commencement of the test.
(§5) Cages: The animals live in identical cages made of stainless steel (Scanbur), length 1 m, depth 0.52 m, height 0.5 m.
(§6) Amount of food: Increasing from 75 g per day at the commencement of the test up to 130 g after three months.
(§7) Experimental drinking water 1 contained theophyllin in a dose equivalent of 27 mg increasing to 63 mg (added as theophyllin and ethylendiamin in a dose of 33 to 77 mg) daily.
(§8) Experimental drinking water 2 contained fluoxetine (Fontex, Lilly) in a dose equivalent of 2 mg increasing to 5 mg daily.
(§9) Experimental diet 3 was added 7-methylxanthine 500 mg per kg Stanrab standard diet equivalent of a daily 7-methylxanthine dose of […] per day.
(§10) Experimental diet 4 was added theobromine (3,7-dimethylxanthine) 500 mg per kg Stanrab standard diet equivalent of a daily theobromine dose of […] per day.
(§11) Experimental diet 5 was added acetazolamide 500 mg per kg Stanrab standard diet equivalent of a daily acetazolamide dose of […] per day.
(§12) Collection of sample: Sclera biopsies are taken for analysis for proteoglycane content, distribution between the individual glycosaminoglycanes and the content of collagen specific amino acids. Four tests from each animal: Two samples from the front, 5×10 mm along limbus (without cornea), and two samples from the back, punch 10 mm corresponding to the center of the retina. Furthermore, tests are taken for electron microscopy (EM) from two animals in each group.
Samples for analysis for content of collagen specific amino acids are frozen down immediately. The amino acid content is determined by HPLC-chromatography.
The dried tissue with constant weight is minced into very fine particles with a pair of scissors, approximately 20 per piece of tissue. The small flakes from each original piece of tissue ate divided into two equally sized portions, one of which is employed for hydrolysis and the other one is kept for reference. The constant dry weight of each portion is known.
From each resolubilized hydrolysate 3 aliquots of each 8 microliters and 3 aliquots of 40 μl are taken and transferred to separate polypropylene tubes in which 20 microliters of a solution of internal standard substances citrulline and 2 aminobutyric acid were added where the further method takes place.
The taken aliquots from hydrolysate are dried in a vacuum exsiccator at 35° C. over night and subsequently submitted to derivatization with phenylisothiocyanate.
The resulting phenylisothiocarbamates are transferred to the HPLC instrument for separation and quantification. A new set of calibration curves is established, 1 curve for each of the 19 amino acids, prior to the analysis of the samples from one investigation.
The concentration range of standard samples exceed the ranges of amino acid concentrations in the unknowns. Hydroxyproline and proline are quantitated from the 8 microliter aliquots, and hydroxylysine is quantitated from the 40 microliter aliquots.

sclera [2] = experiment: Content of proteoglycanes in rabbit sclera after long term treatment (alcian blue method); type: in vivo; set-up: Proteoglycanes Decrease compared to the control, anterior sclera / Proteoglycanes Increase compared to the control, anterior sclera / Proteoglycanes Increase compared to the control, posterior sclera / Effect on proteoglycan content of posterior sclera in % compared to control: concentration or dose not given beside the values; details: for Effect on proteoglycan content of posterior sclera in % compared to control: rabbit, Examples 2 and 4; for Content of proteoglycanes, anterior sclera / Content of proteoglycanes, posterior sclera: wet weight
Description: as §1, §2, §3, §4
Lightness/Darkness cycle: 12/12 hours.
as §5
Food: Stanrab standard diet from Special Diet Services, P.O. Box 705, Witham Essex CM8 3AD, UK (further details, see Table A).
as §6, §7, §8
Experimental diet 2 was added 4.5 g L-cystine per kg Stanrab standard diet equivalent of a daily L-cystine dose of 338 mg increasing to 585 mg per day. With respect to the supplement of L-cystine, the normal intake per day of the standard diet is 218 mg increasing to 377 mg L-cystine.
as §9, §10, §11
Experimental diet 6 was added 4.5 g L-ornithine per kg Stanrab standard diet equivalent of a daily L-ornithine dose of 338 mg increasing to 585 mg per day.
as §12
Analyses: Samples for proteoglycane analysis are frozen down immediately. The samples are analyzed by Wieslab AB, IDEON, S-223 70 Lund, Sweden, by means of a method which has been described by Björnsson, S., Analytical Biochemistry 210, 282-291 (1993). The method comprises extraction by 20 microliters of 4 M guanidine-HCl, 50 Mm sodium acetate per mg wet weight over night by room temperatures. The extracts are centrifuged in order to remove debris. 20 microliters of supernatant are reduced 1/10 in extraction buffer and 20 microliters of reduced supernatant are mixed with 10 microliters of reagent 1 (see Björnsson, S., Analytical biochemistry 210, 282-291 (1993)) on a shaking table for 15 minutes. 200 microliters of reagent 2 are added and the tests are incubated for 60 minutes in order to precipitate the proteoglycanes. The proteoglycane/alcian blue precipitate is transferred to 96-wells MillBlotD apparatus and washed with 2×200 microliters of 40% DMSO, 0.05 M of MgCl2. The colour intensity of the wells are quantitated by microtech E3 scanner and Scan Analysis software (Biosoft, Cambridge, U.K.). Chrondroitine-6-sulphate (Sigma C4384) is used as the calibrator. All samples are analyzed in duplicate.
The results of longterm treatment with each of the 8 substances specified above are shown in Example 2 (treatment for 12 weeks) and Example 4 (treatment for 10 weeks).

[3] = test system: retinal pigment epithelium; experiment: c-wave at ERG and standing potential of the eye; details: in vivo
Source text: Registration of c-Wave at ERG in animals (e.g. rabbits) is a well-developed examination technique (Skoog, K. O., Nilsson, S. E. G., Acta Ophthalmol. (Kph), 52: 759-773 (1974), Jarkman, S., Skoog, K. O., Doc. Ophthalmol., 60: 383-392 (1985)). Also intraoccular administration of test substances for test animals is also a well-described-technique (Textorius O., Doc. Ophthalmol., 63:349-358 (1986)). Alternatively, test substances can be administered intravenously (Jarkman, S., Doc. Ophthalmol. 60: 375-382 (1985)).

eye [4] = details: test animals exposed to visual deprivation; cited from earlier work
[5] = humans; cited from earlier work
[6] = rabbits; cited from earlier work
skeletal RyR = target: T1, skeletal RyR (Oryctolagus cuniculus, UniProt P11716); details: cited from earlier work
T1 construct: Structure-activity Relationship of Xanthines and Skeletal Muscle Ryanodine Receptor/Ca^2+ Release Channel; from tissue; host or cells: Skeletal muscle

sclera [7] = experiment: Content of collagen specific amino acids in rabbit sclera after long term treatment (HPLC); type: in vivo; details: dried defatted weight, 10 weeks treatment (Example 4)
eye [8] = details: animal, abnormal postnatal growth of the eye; cited from earlier work
[9] = anterior sclera, 3 months treatment
[10] = posterior sclera, 3 months treatment
[11] = posterior sclera, 10 weeks treatment (Example 4)

T1 sequence (P11716 whole entry): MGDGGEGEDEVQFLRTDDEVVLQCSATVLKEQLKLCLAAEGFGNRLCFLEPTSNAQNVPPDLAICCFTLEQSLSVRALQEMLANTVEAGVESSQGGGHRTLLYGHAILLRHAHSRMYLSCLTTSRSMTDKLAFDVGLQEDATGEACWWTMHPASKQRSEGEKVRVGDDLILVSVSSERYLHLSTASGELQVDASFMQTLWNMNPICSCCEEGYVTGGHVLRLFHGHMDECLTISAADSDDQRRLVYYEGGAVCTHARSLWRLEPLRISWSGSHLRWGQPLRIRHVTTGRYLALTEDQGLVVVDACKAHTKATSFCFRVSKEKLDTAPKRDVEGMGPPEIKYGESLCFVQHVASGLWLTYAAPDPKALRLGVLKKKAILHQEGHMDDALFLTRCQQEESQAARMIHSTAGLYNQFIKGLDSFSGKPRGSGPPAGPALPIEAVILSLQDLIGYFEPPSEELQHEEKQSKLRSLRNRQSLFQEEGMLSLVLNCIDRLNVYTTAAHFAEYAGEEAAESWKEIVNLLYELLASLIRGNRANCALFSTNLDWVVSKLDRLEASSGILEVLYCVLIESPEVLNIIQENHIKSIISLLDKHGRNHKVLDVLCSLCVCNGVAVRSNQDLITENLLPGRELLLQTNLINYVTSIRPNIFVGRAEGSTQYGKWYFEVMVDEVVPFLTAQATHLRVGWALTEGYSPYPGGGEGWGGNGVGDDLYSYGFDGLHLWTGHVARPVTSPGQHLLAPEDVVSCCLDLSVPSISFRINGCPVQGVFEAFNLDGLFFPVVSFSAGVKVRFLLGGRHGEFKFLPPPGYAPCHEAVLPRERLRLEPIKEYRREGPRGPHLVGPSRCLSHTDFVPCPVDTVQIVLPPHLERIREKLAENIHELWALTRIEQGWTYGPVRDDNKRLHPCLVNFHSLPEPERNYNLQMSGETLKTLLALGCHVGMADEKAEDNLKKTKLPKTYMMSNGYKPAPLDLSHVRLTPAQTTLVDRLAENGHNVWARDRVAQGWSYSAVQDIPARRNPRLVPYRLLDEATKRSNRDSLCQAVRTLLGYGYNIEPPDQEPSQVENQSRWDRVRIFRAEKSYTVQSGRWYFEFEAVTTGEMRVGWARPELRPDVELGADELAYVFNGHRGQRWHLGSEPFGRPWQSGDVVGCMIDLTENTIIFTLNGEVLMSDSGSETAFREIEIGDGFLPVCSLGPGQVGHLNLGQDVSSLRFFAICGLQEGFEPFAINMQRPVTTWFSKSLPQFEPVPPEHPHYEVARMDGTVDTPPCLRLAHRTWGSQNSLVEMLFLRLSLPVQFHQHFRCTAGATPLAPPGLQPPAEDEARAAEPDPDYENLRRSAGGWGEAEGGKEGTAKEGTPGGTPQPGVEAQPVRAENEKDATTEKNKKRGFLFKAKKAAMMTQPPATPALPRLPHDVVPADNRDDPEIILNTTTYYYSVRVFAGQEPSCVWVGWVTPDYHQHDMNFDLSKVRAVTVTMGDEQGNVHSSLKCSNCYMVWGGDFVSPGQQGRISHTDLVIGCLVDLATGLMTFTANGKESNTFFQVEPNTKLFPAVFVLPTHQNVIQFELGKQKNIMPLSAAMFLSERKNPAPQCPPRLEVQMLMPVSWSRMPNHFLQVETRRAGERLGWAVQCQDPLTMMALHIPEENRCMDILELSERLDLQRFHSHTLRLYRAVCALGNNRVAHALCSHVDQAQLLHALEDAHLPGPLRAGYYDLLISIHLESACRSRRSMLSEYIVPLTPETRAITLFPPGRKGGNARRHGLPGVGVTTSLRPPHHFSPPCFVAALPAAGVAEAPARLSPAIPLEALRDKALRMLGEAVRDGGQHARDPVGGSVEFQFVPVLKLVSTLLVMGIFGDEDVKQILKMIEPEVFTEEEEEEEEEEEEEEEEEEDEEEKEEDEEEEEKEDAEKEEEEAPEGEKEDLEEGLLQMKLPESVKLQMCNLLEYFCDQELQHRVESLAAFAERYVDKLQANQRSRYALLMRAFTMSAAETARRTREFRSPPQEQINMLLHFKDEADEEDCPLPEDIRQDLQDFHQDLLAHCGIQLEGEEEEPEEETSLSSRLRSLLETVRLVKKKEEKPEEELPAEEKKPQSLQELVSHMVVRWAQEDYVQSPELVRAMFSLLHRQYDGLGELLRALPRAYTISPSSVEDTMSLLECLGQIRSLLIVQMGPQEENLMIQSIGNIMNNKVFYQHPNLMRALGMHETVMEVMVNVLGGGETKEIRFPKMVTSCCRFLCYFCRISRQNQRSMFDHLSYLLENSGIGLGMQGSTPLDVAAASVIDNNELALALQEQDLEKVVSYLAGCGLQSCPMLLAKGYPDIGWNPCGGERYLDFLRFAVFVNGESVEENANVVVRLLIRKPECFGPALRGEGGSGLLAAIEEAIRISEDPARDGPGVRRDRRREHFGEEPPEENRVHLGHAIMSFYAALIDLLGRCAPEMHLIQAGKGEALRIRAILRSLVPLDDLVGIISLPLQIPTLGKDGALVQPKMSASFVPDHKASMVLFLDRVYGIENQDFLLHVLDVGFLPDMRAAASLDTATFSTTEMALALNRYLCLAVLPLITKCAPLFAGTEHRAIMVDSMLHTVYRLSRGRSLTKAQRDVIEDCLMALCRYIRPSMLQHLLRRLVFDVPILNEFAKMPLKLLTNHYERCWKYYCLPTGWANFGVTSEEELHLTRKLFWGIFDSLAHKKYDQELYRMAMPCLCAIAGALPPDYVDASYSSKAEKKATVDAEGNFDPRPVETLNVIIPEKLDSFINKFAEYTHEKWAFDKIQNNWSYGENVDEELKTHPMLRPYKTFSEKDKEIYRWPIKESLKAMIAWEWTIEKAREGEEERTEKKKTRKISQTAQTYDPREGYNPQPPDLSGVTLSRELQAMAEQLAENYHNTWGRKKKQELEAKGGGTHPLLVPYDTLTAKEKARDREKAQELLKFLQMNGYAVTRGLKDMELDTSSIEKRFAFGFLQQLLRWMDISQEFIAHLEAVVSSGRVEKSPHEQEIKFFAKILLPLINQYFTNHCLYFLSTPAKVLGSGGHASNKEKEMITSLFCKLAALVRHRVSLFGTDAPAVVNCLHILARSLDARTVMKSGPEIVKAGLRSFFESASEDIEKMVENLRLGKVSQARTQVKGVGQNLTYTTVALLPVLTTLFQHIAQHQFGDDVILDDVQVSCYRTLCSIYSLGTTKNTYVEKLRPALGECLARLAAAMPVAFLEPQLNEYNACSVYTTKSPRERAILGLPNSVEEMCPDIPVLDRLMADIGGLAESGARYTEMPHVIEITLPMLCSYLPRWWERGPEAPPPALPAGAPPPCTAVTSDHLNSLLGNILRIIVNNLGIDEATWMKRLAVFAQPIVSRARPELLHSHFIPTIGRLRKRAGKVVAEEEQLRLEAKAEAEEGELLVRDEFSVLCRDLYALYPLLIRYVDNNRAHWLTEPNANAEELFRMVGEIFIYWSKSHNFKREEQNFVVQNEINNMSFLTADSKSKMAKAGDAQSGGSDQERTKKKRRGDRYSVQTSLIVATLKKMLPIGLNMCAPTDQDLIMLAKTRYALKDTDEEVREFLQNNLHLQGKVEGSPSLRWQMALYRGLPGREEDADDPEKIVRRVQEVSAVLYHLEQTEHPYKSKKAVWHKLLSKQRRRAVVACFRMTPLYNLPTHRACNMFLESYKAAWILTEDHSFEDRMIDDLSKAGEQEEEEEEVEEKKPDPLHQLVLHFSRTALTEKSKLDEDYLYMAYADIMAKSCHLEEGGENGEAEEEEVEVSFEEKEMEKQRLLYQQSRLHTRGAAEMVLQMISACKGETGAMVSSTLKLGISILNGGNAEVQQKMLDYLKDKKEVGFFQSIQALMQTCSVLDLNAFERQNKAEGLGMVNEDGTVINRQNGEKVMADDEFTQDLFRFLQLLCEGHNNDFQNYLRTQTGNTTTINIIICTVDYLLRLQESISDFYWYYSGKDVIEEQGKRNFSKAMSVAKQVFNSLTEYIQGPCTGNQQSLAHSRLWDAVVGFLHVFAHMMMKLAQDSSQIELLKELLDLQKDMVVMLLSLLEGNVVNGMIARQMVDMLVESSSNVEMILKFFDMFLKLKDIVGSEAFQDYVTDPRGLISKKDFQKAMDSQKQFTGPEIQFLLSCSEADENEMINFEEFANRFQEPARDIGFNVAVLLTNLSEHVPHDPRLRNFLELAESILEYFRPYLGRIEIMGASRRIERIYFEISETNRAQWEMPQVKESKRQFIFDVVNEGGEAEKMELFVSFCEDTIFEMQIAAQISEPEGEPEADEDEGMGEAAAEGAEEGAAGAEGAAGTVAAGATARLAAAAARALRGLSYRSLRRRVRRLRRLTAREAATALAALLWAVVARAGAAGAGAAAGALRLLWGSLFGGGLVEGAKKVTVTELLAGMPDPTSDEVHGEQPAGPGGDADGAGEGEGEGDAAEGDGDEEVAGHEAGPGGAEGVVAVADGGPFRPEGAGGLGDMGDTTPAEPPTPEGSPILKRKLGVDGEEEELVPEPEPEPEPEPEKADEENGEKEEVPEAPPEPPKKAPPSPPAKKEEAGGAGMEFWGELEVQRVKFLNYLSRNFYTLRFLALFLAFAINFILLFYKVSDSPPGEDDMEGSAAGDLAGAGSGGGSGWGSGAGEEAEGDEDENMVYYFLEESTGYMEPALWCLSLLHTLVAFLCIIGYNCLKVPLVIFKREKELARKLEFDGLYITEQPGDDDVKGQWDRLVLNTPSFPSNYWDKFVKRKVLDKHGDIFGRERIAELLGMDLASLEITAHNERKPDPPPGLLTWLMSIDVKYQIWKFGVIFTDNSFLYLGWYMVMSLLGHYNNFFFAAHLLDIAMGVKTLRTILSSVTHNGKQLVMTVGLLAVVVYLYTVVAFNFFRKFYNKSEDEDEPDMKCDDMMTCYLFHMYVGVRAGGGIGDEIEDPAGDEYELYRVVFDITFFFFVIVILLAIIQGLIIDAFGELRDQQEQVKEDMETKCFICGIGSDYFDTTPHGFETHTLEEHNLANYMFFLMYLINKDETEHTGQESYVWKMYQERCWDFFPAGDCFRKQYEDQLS

Cn1c(=O)c2[nH]cnc2n(C)c1=O [Theophylline, 1,3-Dimethylxanthine]
content of hydroxylysine (in words) (sclera [1]; comment to the examples): reduces
content of the collagen specific amino acids hydroxyproline and proline (in words) (sclera [1]; comment to the examples): increase
content of proteoglycanes in sclera (in words) (sclera [2]; comment to the examples): reduces
Effect on proteoglycan content of posterior sclera in % compared to control (sclera [2]): 100%
c-wave at ERG [3]: reduces
standing potential of the eye [3]: reduces

CN1CCc2cccc3c2[C@H]1Cc1ccc(O)c(O)c1-3 [apomorphine]
development of myopia (eye [4]): inhibits

Cn1c(=O)c2c(ncn2C)n(C)c1=O [Caffeine, 1,3,7-Trimethylxanthine]
Hydroxyproline Inc. compared to the control (sclera [1]; [9]): 14%
Proline Inc. compared to the control (sclera [1]; [9]): 12%
Hydroxylysine content (sclera [1]; [9]): 39 +/− 19 nanomol/mg tissue
Hydroxyproline content (sclera [1]; [9]): 688 +/− 36* nanomol/mg tissue
Proline content (sclera [1]; [9]): 993 +/− 18* nanomol/mg tissue
Hydroxylysine Decr. compared to the control (sclera [1]; [10]): 14%
Hydroxyproline Inc. compared to the control (sclera [1]; [10]): 22%
Proline Inc. compared to the control (sclera [1]; [10]): 17%
Hydroxylysine content (sclera [1]; [10]): 37 +/− 16 nanomol/mg tissue
Hydroxyproline content (sclera [1]; [10]): 668 +/− 61 nanomol/mg tissue
Proline content (sclera [1]; [10]): 947 +/− 38 nanomol/mg tissue
Proteoglycanes Increase compared to the control, anterior sclera (sclera [2]; 3 months treatment): 19%
Proteoglycanes Increase compared to the control, posterior sclera (sclera [2]; 3 months treatment): 19%
Effect on proteoglycan content of posterior sclera in % compared to control (sclera [2]): 119%
Content of proteoglycanes, anterior sclera (sclera [2]; 3 months treatment): 3.2 +/− 0.8 μg PG/mg tissue
Content of proteoglycanes, posterior sclera (sclera [2]; 3 months treatment): 3.2 +/− 0.5 μg PG/mg tissue
half-life period [5]: approximately 5 hours
half-life period [6]: approximately 1 hour

Cn1cnc2[nH]c(=O)[nH]c(=O)c21 [7-Methylxanthine]
content of hydroxyproline and proline in posterior sclera (in words) (sclera [1]; Example 4, versus control): significantly higher content
Hydroxylysine Inc. (sclera [1]; [11]): 7%
Hydroxyproline Inc. (sclera [1]; [11]): 16%
Proline Inc. (sclera [1]; [11]): 10%
Proteoglycanes Decrease, anterior sclera (sclera [2]; 10 weeks treatment (Example 4)): 14%
Proteoglycanes Increase, posterior sclera (sclera [2]; 10 weeks treatment (Example 4)): 14%
content of proteoglycans in posterior sclera (in words) (sclera [2]; Example 4, versus control): near significant increase
Effect on proteoglycan content of posterior sclera in % compared to control (sclera [2]): 114%
Content of proteoglycanes, anterior sclera (sclera [2]; 10 weeks treatment (Example 4)): 2.5 +/− 0.5 μg PG/mg tissue
Content of proteoglycanes, posterior sclera (sclera [2]; 10 weeks treatment (Example 4)): 3.3 +/− 0.3 μg PG/mg tissue
Effect on [3H ryanodine binding in % compared to control (skeletal RyR; values of Table 3 without AMP/AMPPCP, caffeine represented by 1,7-dimethylxanthine): 204%
Bound [3H]ryanodine % of control (skeletal RyR; xanthine […], 1 mmol/l AMPPCP, control (-xanthine) = 100): 225 ± 11 % of control
Bound [3H]ryanodine pmol/mg protein (skeletal RyR; xanthine […], 1 mmol/l AMPPCP, means±SD of 3-4 experiments): 3.80 ± 0.19 pmol/mg protein
Bound [3H]ryanodine, % of control, +1 mmol/l AMPPCP (skeletal RyR; xanthine […], +1 mmol/l AMPPCP, control (-xanthine) = 100): 225 ± 11 % of control
Bound [3H]ryanodine, % of control, +3 mmol/l AMP (skeletal RyR; xanthine […], +3 mmol/l AMP, control (-xanthine) = 100): 214 ± 15 % of control
Hydroxylysine content (sclera [7]; anterior sclera): 45 +/− 3 nanomol/mg tissue
Hydroxyproline content (sclera [7]; anterior sclera): 667 +/− 73 nanomol/mg tissue
Proline content (sclera [7]; anterior sclera): 951 +/− 111 nanomol/mg tissue
Hydroxylysine content (sclera [7]; posterior sclera): 44 +/− 7 nanomol/mg tissue
Hydroxyproline content (sclera [7]; posterior sclera): 719 +/− 81* nanomol/mg tissue
Proline content (sclera [7]; posterior sclera): 1018 +/− 108* nanomol/mg tissue

CN1CCN(CC(=O)N2c3ccccc3C(=O)Nc3cccnc32)CC1 [pirenzepine]
axial longitudinal growth (eye [8]): inhibited
